Measured values reported in PubChem BioAssay AID328 (DTP/NCI, 2004).
Several values for one entry are separate records, joined by “and”; a condition that tells them apart may be missing. Equal entries are not always repeated. Toxic doses and inconclusive results are not listed. The calls were made as follows: active = survival T/C of 150% or more; inactive = T/C below 125% in these data.

System: BDF1 mice, P388 leukemia ip, median survival T/C
Test: NCI In Vivo Anticancer Drug Screen. Data for tumor model P388 Leukemia (intraperitoneal) in B6D2F1 (BDF1) mice
Conditions: endpoint: median survival time, higher = longer survival
How it was run: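 T/C = treated-group survival ÷ vehicle-control survival; tumour transplanted into mice before dosing.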

[1] = dose: 50.0 mg/kg/injection, schedule: Q01DX009 (ip), vehicle: saline with Tween-80
[2] = dose: 100.0 mg/kg/injection, schedule: Q01DX009 (ip), vehicle: saline with Tween-80
[3] = dose: 200.0 mg/kg/injection, schedule: Q01DX009 (ip), vehicle: saline with Tween-80
[4] = dose: 100.0 mg/kg/injection, schedule: Q04DX003 (ip), vehicle: saline sonified
[5] = dose: 100.0 mg/kg/injection, schedule: Q01DX009 (ip), vehicle: saline
[6] = dose: 100.0 mg/kg/injection, schedule: Q04DX003 (ip), vehicle: saline with Tween-80
[7] = dose: 200.0 mg/kg/injection, schedule: Q04DX003 (ip), vehicle: saline with Tween-80
[8] = dose: 100.0 mg/kg/injection, schedule: Q04DX003 (ip), vehicle: Klucel (hydroxypropylcellulose) (HPC)
[9] = dose: 200.0 mg/kg/injection, schedule: Q04DX003 (ip), vehicle: Klucel (hydroxypropylcellulose) (HPC)
[10] = dose: 50.0 mg/kg/injection, schedule: Q04DX003 (ip), vehicle: Klucel (hydroxypropylcellulose) (HPC)
[11] = dose: 100.0 mg/kg/injection, schedule: Q01DX009 (ip), vehicle: Klucel (hydroxypropylcellulose) (HPC)
[12] = dose: 200.0 mg/kg/injection, schedule: Q01DX009 (ip), vehicle: Klucel (hydroxypropylcellulose) (HPC)

Measured: T/C

N/N=C(/c1ccccc1)c1nc(-c2ccccc2)n[nH]c1=O
inactive: [1] 111 % of control | [2] 106 % of control | [3] 112 % of control

CC1CC(C)(C)CC2CC(C(=O)O)(C(=O)O)CC12 (stereo not drawn)
inactive: dose: 25.0 mg/kg/injection, schedule: Q04DX003 (ip), vehicle: saline sonified 110 % of control | dose: 50.0 mg/kg/injection, schedule: Q04DX003 (ip), vehicle: saline sonified 100 % of control | [4] 100 % of control

CC1CC2CCCC(O)=C2C(=O)O1 (stereo not drawn)
inactive: dose: 37.0 mg/kg/injection, schedule: Q01DX010 (ip), vehicle: saline 95 % of control | dose: 75.0 mg/kg/injection, schedule: Q01DX010 (ip), vehicle: saline 100 % of control | dose: 150.0 mg/kg/injection, schedule: Q01DX010 (ip), vehicle: saline 105 % of control

CC12CCC3(CC1CCC(OC(=O)c1ccccc1)C2)OCCO3 (stereo not drawn)
inactive: dose: 22.0 mg/kg/injection, schedule: Q01DX009 (ip), vehicle: other 109 % of control | dose: 33.0 mg/kg/injection, schedule: Q01DX009 (ip), vehicle: other 109 % of control | dose: 44.0 mg/kg/injection, schedule: Q04DX003 (ip), vehicle: other 100 % of control | dose: 50.0 mg/kg/injection, schedule: Q01DX009 (ip), vehicle: other 109 % of control | dose: 66.0 mg/kg/injection, schedule: Q04DX003 (ip), vehicle: other 109 % of control | dose: 75.0 mg/kg/injection, schedule: Q01DX009 (ip), vehicle: other 109 % of control | dose: 100.0 mg/kg/injection, schedule: Q04DX003 (ip), vehicle: other 100 % of control | dose: 150.0 mg/kg/injection, schedule: Q04DX003 (ip), vehicle: other 100 % of control | dose: 200.0 mg/kg/injection, schedule: Q01DX009 (ip), vehicle: other 109 % of control | dose: 200.0 mg/kg/injection, schedule: Q04DX003 (ip), vehicle: other 109 % of control | dose: 400.0 mg/kg/injection, schedule: Q01DX009 (ip), vehicle: other 104 % of control | dose: 400.0 mg/kg/injection, schedule: Q04DX003 (ip), vehicle: other 109 % of control

CCN(CC)c1ccc2c(C)cc(=O)oc2c1
inactive: dose: 6.25 mg/kg/injection, schedule: Q01DX009 (ip), vehicle: saline with Tween-80 100 % of control | dose: 12.5 mg/kg/injection, schedule: Q01DX009 (ip), vehicle: saline with Tween-80 94 % of control | dose: 25.0 mg/kg/injection, schedule: Q01DX009 (ip), vehicle: saline with Tween-80 94 % of control | [1] 94 % of control | [2] 92 % of control | [3] 94 % of control

CCCC#CCOCC(O)CCl (stereo not drawn)
inactive: [5] 104 % of control | [6] 104 % of control | dose: 200.0 mg/kg/injection, schedule: Q01DX009 (ip), vehicle: saline 109 % of control | [7] 108 % of control

CC(=O)Nc1c(C)cc(C)cc1C
inactive: [8] 104 % of control | [9] 100 % of control | dose: 400.0 mg/kg/injection, schedule: Q04DX003 (ip), vehicle: Klucel (hydroxypropylcellulose) (HPC) 118 % of control

O=c1nc(Oc2ccccc2)nc2ccccn12
inactive: [1] 105 % of control | [2] 97 % of control | [3] 102 % of control

C[N+]12CCCc3cc(CO)cc(c31)CCC2
inactive: dose: 12.5 mg/kg/injection, schedule: Q04DX003 (ip), vehicle: Klucel (hydroxypropylcellulose) (HPC) 103 % of control | dose: 25.0 mg/kg/injection, schedule: Q04DX003 (ip), vehicle: Klucel (hydroxypropylcellulose) (HPC) 100 % of control | [10] 119 % of control

Nc1ccc(N=Nc2ccccc2)c(N)n1
inactive: [10] 100 % of control | [8] 100 % of control

Cc1cc(N(CCO)CCO)c2ccc3cc4ccccc4cc3c2n1
inactive: [1] 119 % of control | [2] 116 % of control | [3] 94 % of control

CCCCCCCCCCCC[N+](C)(C)CC(O)C[N+](C)(C)CCCCCCCCCCCC
inactive: dose: 3.13 mg/kg/injection, schedule: Q01DX009 (ip), vehicle: saline 102 % of control | dose: 6.25 mg/kg/injection, schedule: Q01DX009 (ip), vehicle: saline 107 % of control

O=C1NC(=O)C2(CCCCCC2)N1
inactive: [1] 100 % of control | dose: 50.0 mg/kg/injection, schedule: Q04DX003 (ip), vehicle: saline with Tween-80 112 % of control | [2] 112 % of control | [4] 95 % of control | [6] 104 % of control | [3] 108 % of control | dose: 200.0 mg/kg/injection, schedule: Q04DX003 (ip), vehicle: saline sonified 95 % of control | [7] 100 % of control | dose: 400.0 mg/kg/injection, schedule: Q04DX003 (ip), vehicle: saline sonified 104 % of control

S=c1nc(-c2ccccc2)c(-c2ccccc2)n[nH]1
inactive: dose: 20.0 mg/kg/injection, schedule: Q01DX001 (ip), vehicle: other 95 % of control | dose: 40.0 mg/kg/injection, schedule: Q01DX001 (ip), vehicle: other 86 % of control | dose: 40.0 mg/kg/injection, schedule: Q04DX003 (ip), vehicle: saline with Tween-80 104 % of control | dose: 75.0 mg/kg/injection, schedule: Q01DX001 (ip), vehicle: other 122 % of control | dose: 75.0 mg/kg/injection, schedule: Q04DX003 (ip), vehicle: saline with Tween-80 108 % of control | dose: 150.0 mg/kg/injection, schedule: Q01DX001 (ip), vehicle: other 90 % of control | dose: 150.0 mg/kg/injection, schedule: Q04DX003 (ip), vehicle: saline with Tween-80 116 % of control

C(/C=C\C=C/Nc1ccccc1)=Nc1ccccc1
inactive: dose: 10.0 mg/kg/injection, schedule: Q01DX009 (ip), vehicle: saline with Tween-80 100 % of control | dose: 20.0 mg/kg/injection, schedule: Q01DX009 (ip), vehicle: saline with Tween-80 91 % of control | dose: 40.0 mg/kg/injection, schedule: Q01DX009 (ip), vehicle: saline with Tween-80 89 % of control

CC[C@@H](C(=O)[C@@H](C)[C@@H](O)[C@H](C)CCc1ccc(C)c(O)c1C(=O)O)[C@H]1O[C@](CC)([C@H]2CC[C@](O)(CC)[C@H](C)O2)C[C@@H]1C
inactive: dose: 3.12 mg/kg/injection, schedule: Q01DX009 (ip), vehicle: Klucel (hydroxypropylcellulose) (HPC) 108 % of control | dose: 6.25 mg/kg/injection, schedule: Q01DX009 (ip), vehicle: Klucel (hydroxypropylcellulose) (HPC) 110 % of control | dose: 12.5 mg/kg/injection, schedule: Q01DX009 (ip), vehicle: Klucel (hydroxypropylcellulose) (HPC) 118 % of control and 119 % of control

O=C(NCCCl)NC1c2ccccc2CCc2ccccc21
inactive: dose: 50.0 mg/kg/injection, schedule: Q01DX009 (ip), vehicle: Klucel (hydroxypropylcellulose) (HPC) 105 % of control | [11] 105 % of control | [8] 95 % of control | [12] 100 % of control | [9] 90 % of control

CN1C(=O)C(=O)c2ccccc21
inactive: [1] 94 % of control | [2] 97 % of control | [3] 93 % of control

Cc1nnc(NC(=O)CCl)s1
inactive: dose: 25.0 mg/kg/injection, schedule: Q01DX009 (ip), vehicle: saline 95 % of control and 100 % of control and 113 % of control | dose: 35.0 mg/kg/injection, schedule: Q01DX009 (ip), vehicle: saline 113 % of control | dose: 50.0 mg/kg/injection, schedule: Q01DX009 (ip), vehicle: saline 100 % of control | [11] 106 % of control | [5] 100 % of control and 105 % of control | [12] 111 % of control
